Reference: US8586611B2 (priority 2005, dated 2013)

Columns and labels:
Assay type in all cases: in vivo
Plasmopara viticola = test: Test B: grape downy mildew, spray 24 h after inoculation (disease rating, 100 = 100% disease control); conditions: spray 24 h after inoculation
How it was run: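 This is a curative spray test, applied 24 h after inoculation. Compounds in 50/50 acetone–water with 250 ppm Trem 014 surfactant were sprayed to run-off on P. viticola-infected seedlings, with 200 ppm equating to 500 g/ha. Plants were kept 5 days in a 20 °C growth chamber, then 24 h humid, and scored 0–100 for disease control relative to controls.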

Phytophthora infestans [1] = test: whole plant or invertebrate; conditions: tomato late blight, spray 17 h after inoculation
Phytophthora infestans [2] = test: whole plant or invertebrate; conditions: tomato late blight, spray the day before inoculation
[3] = system: Erysiphe graminis f. sp. tritici; test: Test E: wheat powdery mildew, spray the day before inoculation (disease rating, 100 = 100% disease control); conditions: spray the day before inoculation
How it was run: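 Protective test: spores of E. graminis f. sp. tritici dusted on wheat seedlings one day after run-off spraying of test suspension (acetone/water with 250 ppm surfactant; 200 ppm = 500 g/ha). Ratings after 7 days in growth chamber at 20° C, 100 = full control, 0 = none, relative to controls.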

[4] = compounds without asterisk (not 40 or 10 ppm)

| Structure (SMILES) | Test B disease rating (100 = 100% disease control, 0 = no disease control) (Plasmopara viticola; [4]) | Test D disease rating (100 = 100% disease control, 0 = no disease control) (Phytophthora infestans [1]; [4]) | Test C disease rating (100 = 100% disease control, 0 = no disease control) (Phytophthora infestans [2]; [4]) | Test E disease rating (100 = 100% disease control, 0 = no disease control) [3, 4] | also measured |
| --- | --- | --- | --- | --- | --- |
| COC1CCC(N(C)C(=O)c2csc(C3CCN(C(=O)Cn4nc(C(F)(F)F)cc4C)CC3)n2)c2ccccc21 (centres unmarked) [compound 213] | – | – | – | – | Test B disease rating (100 = 100% disease control, 0 = no disease control) (Plasmopara viticola; tested at 40 ppm): 99%; Test D disease rating (100 = 100% disease control, 0 = no disease control) (Phytophthora infestans [1]; tested at 40 ppm): 99%; Test C disease rating (100 = 100% disease control, 0 = no disease control) (Phytophthora infestans [2]; tested at 40 ppm): 100%; Test E disease rating (100 = 100% disease control, 0 = no disease control) ([3]; tested at 40 ppm): 0% |
| CN(C(=O)c1csc(C2CCN(C(=O)Cc3cccc(Cl)n3)CC2)n1)[C@@H]1CCCc2ccccc21 [compound 214] | 98% | 99% | 99% | 0% | – |
| Cc1cc(C)nc(CC(=O)N2CCC(c3nc(C(=O)N(C)[C@@H]4CCCc5ccccc54)cs3)CC2)c1 [compound 215] | 0% | 99% | 100% | 0% | – |
| Cc1cc(C(F)(F)F)nn1CC(=O)N1CCC(c2noc(C(=O)N(C)[C@H](C)c3ccccc3)n2)CC1 [compound 216] | 72% | 16% | 95% | 0% | – |
| Cc1cc(C(F)(F)F)nn1CC(=O)N1CCC(n2cc(C(=O)N(C)[C@@H]3CCCc4ccccc43)nn2)CC1 [compound 217] | 52% | 40% | 99% | 0% | – |
| CNC(=O)OC1CCC(N(C)C(=O)c2csc(C3CCN(C(=O)Cn4nc(C(F)(F)F)cc4C)CC3)n2)c2ccccc21 (centres unmarked) [compound 219] | 69% | 99% | 99% | 0% | – |
| Cc1cc(C(F)(F)F)nn1CC(=O)N1CCC(c2nc(C(=O)N(C)C3CCc4cc(Cl)ccc43)cs2)CC1 (centres unmarked) [compound 221] | – | – | – | – | Test B disease rating (100 = 100% disease control, 0 = no disease control) (Plasmopara viticola; tested at 10 ppm): 77%; Test D disease rating (100 = 100% disease control, 0 = no disease control) (Phytophthora infestans [1]; tested at 10 ppm): 98%; Test C disease rating (100 = 100% disease control, 0 = no disease control) (Phytophthora infestans [2]; tested at 10 ppm): 99%; Test E disease rating (100 = 100% disease control, 0 = no disease control) ([3]; tested at 10 ppm): 0% |
| Cc1cc(C(F)(F)F)nn1CC(=O)N1CCC(c2csc(C(=O)N(C)[C@@H]3CCCc4ccccc43)n2)CC1 [compound 223] | – | – | – | – | Test B disease rating (100 = 100% disease control, 0 = no disease control) (Plasmopara viticola; tested at 40 ppm): 99%; Test D disease rating (100 = 100% disease control, 0 = no disease control) (Phytophthora infestans [1]; tested at 40 ppm): 99%; Test C disease rating (100 = 100% disease control, 0 = no disease control) (Phytophthora infestans [2]; tested at 40 ppm): 100%; Test E disease rating (100 = 100% disease control, 0 = no disease control) ([3]; tested at 40 ppm): 0% |
| Cc1cc(C(F)(F)F)nn1CC(=O)N1CCN(c2nc(C(=O)N(C)[C@@H]3CCCc4ccccc43)ns2)CC1 [compound 224] | – | – | – | – | Test B disease rating (100 = 100% disease control, 0 = no disease control) (Plasmopara viticola; tested at 40 ppm): 93%; Test D disease rating (100 = 100% disease control, 0 = no disease control) (Phytophthora infestans [1]; tested at 40 ppm): 99%; Test C disease rating (100 = 100% disease control, 0 = no disease control) (Phytophthora infestans [2]; tested at 40 ppm): 100%; Test E disease rating (100 = 100% disease control, 0 = no disease control) ([3]; tested at 40 ppm): 0% |
| Cc1cc(C(F)(F)F)nn1CC(=O)N1CCC(c2nc(C(=O)N(C)[C@@H]3CCCc4ccccc43)no2)CC1 [compound 225] | 83% | 99% | 100% | 0% | – |
| Cc1nc(C2CCN(C(=O)Cn3nc(C(F)(F)F)cc3C)CC2)sc1C(=O)N(C)[C@@H]1CCCc2ccccc21 [compound 227] | 44% | 0% | 63% | 0% | – |
